Laboratory results taken from US6495591B1, “Fungal efflux pump inhibitors” (Essential Therapeutics, Inc., priority 1997, dated 2002).
Values after ≈ are worked out from the molar mass of the structure shown. Read-outs that look alike come from different tables or passages of the source.

What was measured:
[1] = test system: C. albicans YEM-11 (BEN overexpressor); assay: microbe, parasite or virus in culture; format: cell-based; details: Candida albicans, read-out: MIC Mb alone
[2] = test system: C. albicans YEM-21 (BEN deleted); assay: microbe, parasite or virus in culture; format: cell-based
[3] = test system: C. albicans YEM-24 (CDR1, CDR2 deleted); assay: microbe, parasite or virus in culture; format: cell-based
[4] = test system: C. albicans YEM-27 (CDR1, CDR2, BEN, FLU1 deleted); assay: microbe, parasite or virus in culture; format: cell-based
[5] = test system: S. cerevisiae YEM-2 (BEN introduced); assay: microbe, parasite or virus in culture; format: cell-based; details: Saccharomyces cerevisiae, read-out: MIC Mb alone
[6] = test system: mammalian P-glycoprotein multi-drug resistant pump; format: cell-based, mouse
Procedure: The inhibitory effect of milbemycin β1 against the mammalian P-glycoprotein multi-drug resistant pump was determined following the procedure described by Tsuruo et al (Cancer Res., 1981. 41:1967-1972) with slight modification. The cytotoxicity of antitumor agent, adriamycin, against adriamycin sensitive P388 cell line (mouse leukemia) and its adriamycin resistant subline line (P388/ADM) was measured in the presence of various concentrations of milbemycin β1. […] The assay is performed in serum-free media containing 20 μM of 2-mercaptoethanol. Chemosensitivity to adriamycin was determined […] based on the reduction of MTT (3-[4,5-dimethylthiazol-2-yl]-2,5-diphenyltetrazolium bromide) into blue formazan.

[7] = test system: C. albicans YEM-30 (wild-type, no pump deleted); assay: microbe, parasite or virus in culture; format: cell-based
[8] = test system: S. cerevisiae YEM-1 (CDR1 introduced); assay: microbe, parasite or virus in culture; format: cell-based; details: Saccharomyces cerevisiae, read-out: MIC Mb alone
[9] = test system: C. glabrata YEM-19 (CgCDR overexpression, higher than YEM-17); assay: microbe, parasite or virus in culture; format: cell-based
[10] = test system: S. cerevisiae YEM-3 (no efflux pump introduced); assay: microbe, parasite or virus in culture; format: cell-based; details: Saccharomyces cerevisiae, read-out: MIC Mb alone
[11] = test system: C. krusei YEM-52 (ATCC 90878), wild type; assay: Minimal concentration to reduce fluconazole MIC sixteen-fold (Table 7); format: cell-based; details: YEM-52, wild type
[12] = test system: C. albicans YEM-13 (BEN overexpressor); assay: microbe, parasite or virus in culture; format: cell-based; details: Candida albicans, read-out: MIC Mb alone
[13] = target: BenR pump (Candida albicans, UniProt P28873); assay: Follow-up evaluation of screening hit, efflux pump inhibition; details: follow-up evaluation of screen hit
Procedure: An exemplary screen uses C. albicans (e.g., ATCC10231) grown in YPD medium (medium described in “Guide to Yeast Genetics and Molecular Biology”, in Methods in Enzymolopy, vol. 194, pp.13, 1991,; Academic Press; Ed. C. Guthrie and G. Fink) at 30° C. […] Test and control cultures are inoculated with log-phase cells to provide approximately 10^3 CFU/ml. Cultures are incubated at 30° C. for 20-22 hrs. Cell concentration is determined by taking the OD600.

[14] = test system: C. albicans YEM-15 (CDR1 and CDR2 overexpressor); assay: microbe, parasite or virus in culture; format: cell-based; details: Candida albicans, read-out: MIC Mb alone
[15] = test system: C. albicans YEM-14 (low level CDR1 expressor); assay: microbe, parasite or virus in culture; format: cell-based
[16] = test system: C. albicans YEM-13 (BEN); format: cell-based
[17] = test system: C. glabrata YEM-18 (low level CgBEN and CgCDR expression); assay: microbe, parasite or virus in culture; format: cell-based
[18] = test system: C. glabrata YEM-19 (CgCDR overexpressor); format: cell-based
[19] = test system: C. albicans YEM-20 (CDR1 deleted); assay: microbe, parasite or virus in culture; format: cell-based
[20] = test system: S. cerevisiae YEM-37 (CDR2 introduced); assay: microbe, parasite or virus in culture; format: cell-based; details: Saccharomyces cerevisiae, read-out: MIC Mb alone
[21] = test system: C. tropicalis; assay: microbe, parasite or virus in culture; format: cell-based
[22] = test system: S. cerevisiae YEM-39 overexpressing CgCDR (C. glabrata); assay: microbe, parasite or virus in culture; format: cell-based; parameters: MIC Reduction Factor, fluconazole: unit not given beside the values; details: for MIC: Saccharomyces cerevisiae
[23] = test system: S. cerevisiae YEM-37 overexpressing CDR2 (C. albicans); assay: microbe, parasite or virus in culture; format: cell-based; parameters: MIC Reduction Factor, fluconazole: unit not given beside the values; details: for MIC: Saccharomyces cerevisiae
[24] = test system: C. krusei; assay: microbe, parasite or virus in culture; format: cell-based
[25] = test system: C. albicans YEM-15 (CDR1 & CDR2 overexpressor); assay: microbe, parasite or virus in culture; format: cell-based; parameters: MIC Reduction Factor, fluconazole / MIC Reduction Factor, itraconazole / MIC Reduction Factor, ketoconazole / MIC Reduction Factor, terbinafine: unit not given beside the values; details: for MIC: Candida albicans
[26] = Candida albicans, read-out: MIC Mb alone
[27] = Nakaseomyces glabratus, read-out: MIC of milbemycin β1 (MB) alone
[28] = read-out: Terbinafine MIC in the presence of FEPImax
[29] = YEM-39 (CgCDR), milbemycin α9 at FEPImax
[30] = YEM-39, milbemycin α9 at FEPImax
[31] = YEM-37 (CDR2), milbemycin α9 at FEPImax
[32] = YEM-37, milbemycin α9 at FEPImax
[33] = YEM-15, milbemycin α9 at FEPImax

BenR pump, sequence (P28873 whole entry): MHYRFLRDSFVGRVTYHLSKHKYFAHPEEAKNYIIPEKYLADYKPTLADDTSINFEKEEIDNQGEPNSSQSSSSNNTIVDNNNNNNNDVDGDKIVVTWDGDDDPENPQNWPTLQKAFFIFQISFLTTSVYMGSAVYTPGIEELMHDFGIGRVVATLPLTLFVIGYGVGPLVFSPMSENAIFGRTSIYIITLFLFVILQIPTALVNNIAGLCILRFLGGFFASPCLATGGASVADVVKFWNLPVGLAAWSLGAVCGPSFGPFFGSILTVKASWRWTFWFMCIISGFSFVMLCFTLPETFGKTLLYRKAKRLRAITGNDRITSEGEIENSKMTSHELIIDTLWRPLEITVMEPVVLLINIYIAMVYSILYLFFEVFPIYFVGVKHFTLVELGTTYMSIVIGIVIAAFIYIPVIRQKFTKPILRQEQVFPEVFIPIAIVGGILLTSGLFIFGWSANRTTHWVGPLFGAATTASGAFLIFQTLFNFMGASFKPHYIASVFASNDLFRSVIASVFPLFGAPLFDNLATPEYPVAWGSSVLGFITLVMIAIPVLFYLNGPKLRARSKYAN

**Q.** What does the source list for `CO[C@H]1C[C@@]2(O)/C(CO)=C/C=C/[C@H](C)C/C(C)=C/C[C@@H]3C[C@@H](C[C@]4(CC[C@H](C)[C@@H](C)O4)O3)OC(=O)[C@@H]2C=C1C` [Compound 6, Milbemycin β1]?
**A.** MIC [1]: 16 µg/mL (≈ 29.4 µM); MIC [2, 26]: 16 µg/mL (≈ 29.4 µM); MIC of fluconazole, Flu + Mb (2.5 μg/ml) ([2]; YEM-21, BEN deleted, milbemycin β1 2.5 μg/ml): 0.03 µg/mL; MIC [3, 26]: 16 µg/mL (≈ 29.4 µM); MIC of fluconazole, Flu + Mb (2.5 μg/ml) ([3]; YEM-24, CDR1, CDR2 deleted, milbemycin β1 2.5 μg/ml): 0.125 µg/mL; MIC [4, 26]: 16 µg/mL (≈ 29.4 µM); MIC of fluconazole, Flu + Mb (2.5 μg/ml) ([4]; YEM-27, all four pumps deleted, milbemycin β1 2.5 μg/ml): 0.03 µg/mL; Effect on fluconazole susceptibility ([4]; YEM-27, strain which lacked all identified efflux pumps): No effect; MIC [5]: 8 µg/mL (≈ 14.7 µM); Potency as inhibitor of the mammalian p-glycoprotein multi-drug resistant pump ([6]; compared with verapamil): potency similar to that of verapamil; Ratio [P388/A]/[P388] ([6]; inhibitor 0.06 μg/ml): 220; Ratio [P388/A]/[P388] ([6]; inhibitor 0.25 μg/ml): 75; Ratio [P388/A]/[P388] ([6]; inhibitor 0.5 μg/ml): 32; Ratio [P388/A]/[P388] ([6]; inhibitor 1 μg/ml): 23; Ratio [P388/A]/[P388] ([6]; inhibitor 2 μg/ml): 4; Ratio [P388/A]/[P388] ([6]; inhibitor 3.125 μg/ml): 5; MIC [7, 26]: 16 µg/mL (≈ 29.4 µM); MIC of fluconazole, Flu + Mb (2.5 μg/ml) ([7]; YEM-30, milbemycin β1 2.5 μg/ml): 0.125 µg/mL; MIC [8]: 8 µg/mL (≈ 14.7 µM); MIC [9, 27]: > 64 µg/mL; Fluconazole MIC with 2.5 μg/ml milbemycin β1 ([9]; YEM-19): 8 µg/mL; Fluconazole MIC with 5 μg/ml milbemycin β1 ([9]; YEM-19): 2 µg/mL; Fluconazole MIC with 10 μg/ml milbemycin β1 ([9]; YEM-19): 2 µg/mL; Fluconazole MIC with […] milbemycin β1 ([9]; YEM-19): 32 µg/mL; MIC [10]: 8 µg/mL (≈ 14.7 µM); Minimal concentration required to reduce the MIC of fluconazole by sixteen-fold [11]: 1.25 µg/mL; MIC [12]: 32 µg/mL (≈ 58.7 µM); Inhibition of the BenR pump [13]: did not appreciably inhibit the BenR pump; MIC [14]: 16 µg/mL (≈ 29.4 µM); MIC [15, 26]: 16 µg/mL (≈ 29.4 µM); MIC of fluconazole, Flu + Mb (2.5 μg/ml) ([15]; YEM-14, milbemycin β1 2.5 μg/ml): 0.125 µg/mL; Minimal concentration required to reduce the MIC of fluconazole by sixteen-fold [16]: 80 µg/mL; MIC [17, 27]: > 64 µg/mL; Fluconazole MIC with 2.5 μg/ml milbemycin β1 ([17]; YEM-18): 2 µg/mL; Fluconazole MIC with 5 μg/ml milbemycin β1 ([17]; YEM-18): 2 µg/mL; Fluconazole MIC with 10 μg/ml milbemycin β1 ([17]; YEM-18): 2 µg/mL; Fluconazole MIC with […] milbemycin β1 ([17]; YEM-18): 2 µg/mL; Minimal concentration required to reduce the MIC of fluconazole by sixteen-fold [18]: 2.5 µg/mL; MIC [19, 26]: 16 µg/mL (≈ 29.4 µM); MIC of fluconazole, Flu + Mb (2.5 μg/ml) ([19]; YEM-20, CDR1 deleted, milbemycin β1 2.5 μg/ml): 0.125 µg/mL; MIC [20]: 8 µg/mL (≈ 14.7 µM)

**Q.** Which results are given for `C/C1=C\C[C@@H]2C[C@@H](C[C@]3(CC[C@H](C)[C@@H](C)O3)O2)OC(=O)[C@@H]2C=C(COC(=O)c3ccc[nH]3)[C@@H](O)[C@H]3OC/C(=C\C=C\[C@H](C)C1)[C@]32O` [Compound 11, Milbemycin α9]?
**A.** Fluconazole MIC, + milbemycin α9 [21]: ≦0.25 μg/ml; MIC ([22]; read-out: Milbemycin α9 MIC): > 64 µg/mL; MIC [22, 28]: 1 µg/mL; FEPImax (minimal milbemycin α9 conc. for maximum MIC reduction), fluconazole ([22]; YEM-39 (CgCDR)): 2 µg/mL; FEPImax (minimal milbemycin α9 conc. for maximum MIC reduction), terbinafine ([22]; YEM-39 (CgCDR)): 2 µg/mL; Pump inhibition (%), fluconazole [22, 29]: 60%; Pump inhibition (%), terbinafine [22, 29]: 66%; Fluconazole MIC in the presence of FEPImax [22, 30]: 4 µg/mL; MIC Reduction Factor, fluconazole [22, 30]: 16; Inhibition of CgCDR efflux pump from C. glabrata ([22]; summary of Table 9, fluconazole and terbinafine): 60-65%; MIC ([23]; read-out: Milbemycin α9 MIC): > 64 µg/mL; MIC [23, 28]: 0.5 µg/mL; FEPImax (minimal milbemycin α9 conc. for maximum MIC reduction), fluconazole ([23]; YEM-37 (CDR2)): 1 µg/mL; FEPImax (minimal milbemycin α9 conc. for maximum MIC reduction), terbinafine ([23]; YEM-37 (CDR2)): 4 µg/mL; Pump inhibition (%), fluconazole [23, 31]: 100%; Pump inhibition (%), terbinafine [23, 31]: 100%; Fluconazole MIC in the presence of FEPImax [23, 32]: 0.5 µg/mL; MIC Reduction Factor, fluconazole [23, 32]: 8; Fluconazole MIC, + milbemycin α9 [24]: 16 µg/mL; MIC ([25]; read-out: Milbemycin α9 MIC): > 64 µg/mL; MIC [25, 28]: 0.125 µg/mL; FEPImax (minimal milbemycin α9 conc. for maximum MIC reduction), fluconazole ([25]; YEM-15): 16 µg/mL; FEPImax (minimal milbemycin α9 conc. for maximum MIC reduction), itraconazole ([25]; YEM-15): 1 µg/mL; FEPImax (minimal milbemycin α9 conc. for maximum MIC reduction), ketoconazole ([25]; YEM-15): 4 µg/mL; FEPImax (minimal milbemycin α9 conc. for maximum MIC reduction), terbinafine ([25]; YEM-15): 4 µg/mL; Fluconazole MIC in the presence of FEPImax [25, 33]: 2 µg/mL; Itraconazole MIC in the presence of FEPImax [25, 33]: 0.06 µg/mL; Ketoconazole MIC in the presence of FEPImax [25, 33]: 0.015 µg/mL; MIC Reduction Factor, fluconazole [25, 33]: 64; MIC Reduction Factor, itraconazole [25, 33]: 8; MIC Reduction Factor, ketoconazole [25, 33]: 64; MIC Reduction Factor, terbinafine [25, 33]: 1024
